Measurements from ChEMBL document CHEMBL3600322, “Phenoxymethyl 1,3-oxazoles and 1,2,4-oxadiazoles as potent and selective agonists of free fatty acid receptor 1 (GPR40)” (Bioorg Med Chem Lett, 2015).
≈ marks a conversion by molar mass, not a printed value.

Assays:
[1] = target: T1, Free fatty acid receptor 1 (Homo sapiens, UniProt O14842); assay: Agonist activity at GPR40 (unknown origin) expressed in CHO cells by FLIPR calcium flux assay in presence of 0.1% bovine serum albumin; type: functional, cell-based
[2] = target: T1, Free fatty acid receptor 1; assay: Agonist activity at GPR40 (unknown origin) expressed in CHO cells at 5 uM by FLIPR calcium flux assay relative to GW9508; type: functional, cell-based
[3] = target: T2, CYP2D6 (Homo sapiens, UniProt P10635); assay: Inhibition of CYP2D6 (unknown origin) at 1 uM by luminescent readout-based method
[4] = target: T3, CYP2C19 (Homo sapiens, UniProt P33261); assay: Inhibition of CYP2C19 (unknown origin) at 24 uM by luminescent readout-based method; type: ADME
[5] = target: T4, CYP1A2 (Homo sapiens, UniProt P05177); assay: Inhibition of CYP1A2 (unknown origin) at 5 uM by luminescent readout-based method; type: ADME
T4 sequence (P05177 whole entry): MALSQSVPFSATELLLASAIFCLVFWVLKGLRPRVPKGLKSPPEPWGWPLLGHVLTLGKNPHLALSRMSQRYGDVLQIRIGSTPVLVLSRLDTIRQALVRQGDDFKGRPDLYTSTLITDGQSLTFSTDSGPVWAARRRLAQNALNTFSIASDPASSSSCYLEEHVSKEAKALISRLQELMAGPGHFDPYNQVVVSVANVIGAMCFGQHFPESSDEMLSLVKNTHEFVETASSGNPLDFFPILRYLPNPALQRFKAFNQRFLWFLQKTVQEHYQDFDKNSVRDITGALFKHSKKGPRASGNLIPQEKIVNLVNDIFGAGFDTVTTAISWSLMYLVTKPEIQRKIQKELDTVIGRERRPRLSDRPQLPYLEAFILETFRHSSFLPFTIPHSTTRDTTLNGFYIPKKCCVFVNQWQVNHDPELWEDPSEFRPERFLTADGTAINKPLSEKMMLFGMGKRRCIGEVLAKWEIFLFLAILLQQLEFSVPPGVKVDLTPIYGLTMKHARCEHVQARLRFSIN

[6] = Plasma protein binding in human at 1 uM after 5 hrs by HPLC-MS/MS analysis; type: ADME, cell-free; settings: read-out: PPB (converted)
[7] = target: T5, Free fatty acid receptor 3 (Homo sapiens, UniProt O14843); assay: Agonist activity at GPR41 (unknown origin) expressed in CHO cells by FLIPR calcium flux assay in presence of 0.1% bovine serum albumin; type: functional, cell-based
T5 sequence (O14843 whole entry): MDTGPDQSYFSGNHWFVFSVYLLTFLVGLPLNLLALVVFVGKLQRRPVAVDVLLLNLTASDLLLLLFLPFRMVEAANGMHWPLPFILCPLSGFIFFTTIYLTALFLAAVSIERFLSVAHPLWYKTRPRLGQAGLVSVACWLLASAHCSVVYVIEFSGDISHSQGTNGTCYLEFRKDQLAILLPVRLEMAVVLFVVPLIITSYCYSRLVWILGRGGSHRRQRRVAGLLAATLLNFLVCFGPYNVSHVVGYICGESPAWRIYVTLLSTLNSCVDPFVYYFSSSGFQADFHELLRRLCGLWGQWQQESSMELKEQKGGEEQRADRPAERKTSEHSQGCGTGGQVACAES

[8] = target: T2, CYP2D6; assay: Inhibition of CYP2D6 (unknown origin) at 5 uM by luminescent readout-based method; type: ADME
[9] = target: T6, Free fatty acid receptor 4 (Homo sapiens, UniProt Q5NUL3); assay: Agonist activity at GPR120 (unknown origin) expressed in CHO cells by FLIPR calcium flux assay in presence of 0.1% bovine serum albumin; type: functional, cell-based
T6 sequence (Q5NUL3 whole entry): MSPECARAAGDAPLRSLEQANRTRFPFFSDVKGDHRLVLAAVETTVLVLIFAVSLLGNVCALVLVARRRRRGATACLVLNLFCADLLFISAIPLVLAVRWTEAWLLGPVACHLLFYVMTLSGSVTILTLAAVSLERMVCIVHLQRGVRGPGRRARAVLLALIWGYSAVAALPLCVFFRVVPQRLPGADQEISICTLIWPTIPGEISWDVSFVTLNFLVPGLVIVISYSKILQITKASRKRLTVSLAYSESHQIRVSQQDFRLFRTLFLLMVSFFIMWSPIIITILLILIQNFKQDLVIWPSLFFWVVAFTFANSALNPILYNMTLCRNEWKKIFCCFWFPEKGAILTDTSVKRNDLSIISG

[10] = target: T3, CYP2C19; assay: Inhibition of CYP2C19 (unknown origin) at 5 uM by luminescent readout-based method; type: ADME
[11] = target: T7, CYP2C9 (Homo sapiens, UniProt P11712); assay: Inhibition of CYP2C9 (unknown origin) at 5 uM by luminescent readout-based method; type: ADME
[12] = Apparent permeability from apical to basolateral side in human Caco2 cells assessed […] at 10 uM by HPLC-MS analysis; type: ADME, cell-based; settings: Caco-2
[13] = Half life in BALB/c mouse liver microsomes at 2 uM by HPLC-MS analysis; type: ADME
[14] = target: T8, Free fatty acid receptor 2 (Homo sapiens, UniProt O15552); assay: Agonist activity at GPR43 (unknown origin) expressed in CHO cells by FLIPR calcium flux assay in presence of 0.1% bovine serum albumin; type: functional, cell-based
T8 sequence (O15552 whole entry): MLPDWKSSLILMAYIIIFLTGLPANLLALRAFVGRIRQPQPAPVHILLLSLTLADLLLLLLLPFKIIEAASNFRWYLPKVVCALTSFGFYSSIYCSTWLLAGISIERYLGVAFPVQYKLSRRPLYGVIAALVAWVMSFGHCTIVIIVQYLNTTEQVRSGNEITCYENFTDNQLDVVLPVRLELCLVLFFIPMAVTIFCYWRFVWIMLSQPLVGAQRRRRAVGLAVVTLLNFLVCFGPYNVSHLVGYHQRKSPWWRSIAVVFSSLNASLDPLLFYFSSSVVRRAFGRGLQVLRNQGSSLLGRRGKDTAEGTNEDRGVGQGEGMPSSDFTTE

[15] = target: CYP3A4 (Homo sapiens, UniProt P08684); assay: Inhibition of CYP3A4 (unknown origin) at 5 uM by luminescent readout-based method; type: ADME
[16] = Kinetic solubility of the compound in phosphate-buffered saline at pH 7.4 by filter microplate technique; type: physicochemical; settings: read-out: Kinetic_solubility
[17] = target: T7, CYP2C9; assay: Inhibition of CYP2C9 (unknown origin) at 120 uM by luminescent readout-based method; type: ADME

T3 sequence (P33261 whole entry): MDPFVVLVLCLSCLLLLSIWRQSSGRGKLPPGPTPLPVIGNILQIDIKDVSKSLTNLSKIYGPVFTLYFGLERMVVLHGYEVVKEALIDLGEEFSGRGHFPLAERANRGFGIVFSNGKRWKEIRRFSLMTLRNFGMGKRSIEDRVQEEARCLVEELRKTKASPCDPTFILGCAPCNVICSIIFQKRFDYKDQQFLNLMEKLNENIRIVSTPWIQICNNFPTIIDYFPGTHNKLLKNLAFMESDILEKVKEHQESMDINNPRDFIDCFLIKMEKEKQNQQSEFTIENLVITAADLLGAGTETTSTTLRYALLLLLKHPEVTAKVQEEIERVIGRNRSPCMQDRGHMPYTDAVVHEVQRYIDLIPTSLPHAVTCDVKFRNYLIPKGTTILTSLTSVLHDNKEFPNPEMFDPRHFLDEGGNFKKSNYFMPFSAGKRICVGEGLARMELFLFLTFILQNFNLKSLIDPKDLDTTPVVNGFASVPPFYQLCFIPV
T1 sequence (O14842 whole entry): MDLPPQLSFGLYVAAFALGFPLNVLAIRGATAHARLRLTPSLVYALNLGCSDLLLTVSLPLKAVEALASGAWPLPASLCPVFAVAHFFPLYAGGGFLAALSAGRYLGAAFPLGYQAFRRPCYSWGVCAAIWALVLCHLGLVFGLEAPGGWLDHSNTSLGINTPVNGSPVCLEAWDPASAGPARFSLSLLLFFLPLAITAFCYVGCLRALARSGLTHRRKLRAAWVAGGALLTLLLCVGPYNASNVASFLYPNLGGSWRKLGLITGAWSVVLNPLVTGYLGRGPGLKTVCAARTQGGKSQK
T7 sequence (P11712 whole entry): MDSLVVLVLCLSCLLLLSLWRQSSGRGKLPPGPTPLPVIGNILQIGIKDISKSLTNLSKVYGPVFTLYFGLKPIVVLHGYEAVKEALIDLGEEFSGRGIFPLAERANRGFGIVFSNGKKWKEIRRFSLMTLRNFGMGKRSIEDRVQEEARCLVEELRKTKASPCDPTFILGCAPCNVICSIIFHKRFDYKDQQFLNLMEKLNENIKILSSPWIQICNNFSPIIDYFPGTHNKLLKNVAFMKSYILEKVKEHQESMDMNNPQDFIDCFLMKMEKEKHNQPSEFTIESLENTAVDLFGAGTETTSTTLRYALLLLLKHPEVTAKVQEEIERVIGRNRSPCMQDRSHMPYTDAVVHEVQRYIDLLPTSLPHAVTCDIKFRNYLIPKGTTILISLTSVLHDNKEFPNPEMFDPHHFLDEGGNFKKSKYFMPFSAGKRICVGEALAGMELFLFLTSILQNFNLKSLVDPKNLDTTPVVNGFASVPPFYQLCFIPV
T2 sequence (P10635 whole entry): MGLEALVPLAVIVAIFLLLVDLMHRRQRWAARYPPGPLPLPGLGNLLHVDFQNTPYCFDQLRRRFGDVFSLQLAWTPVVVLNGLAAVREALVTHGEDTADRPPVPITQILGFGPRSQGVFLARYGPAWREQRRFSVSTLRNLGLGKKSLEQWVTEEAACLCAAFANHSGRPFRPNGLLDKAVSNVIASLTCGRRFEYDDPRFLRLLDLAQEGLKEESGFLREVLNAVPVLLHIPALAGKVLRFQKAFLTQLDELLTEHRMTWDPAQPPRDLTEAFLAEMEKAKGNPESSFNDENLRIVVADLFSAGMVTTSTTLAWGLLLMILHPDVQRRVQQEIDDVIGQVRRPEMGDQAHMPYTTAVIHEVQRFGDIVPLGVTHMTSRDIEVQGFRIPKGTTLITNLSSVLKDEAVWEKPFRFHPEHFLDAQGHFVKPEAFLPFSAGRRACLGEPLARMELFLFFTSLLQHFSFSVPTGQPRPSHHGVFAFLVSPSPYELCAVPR
Chain of CYP3A4 (P08684 whole entry): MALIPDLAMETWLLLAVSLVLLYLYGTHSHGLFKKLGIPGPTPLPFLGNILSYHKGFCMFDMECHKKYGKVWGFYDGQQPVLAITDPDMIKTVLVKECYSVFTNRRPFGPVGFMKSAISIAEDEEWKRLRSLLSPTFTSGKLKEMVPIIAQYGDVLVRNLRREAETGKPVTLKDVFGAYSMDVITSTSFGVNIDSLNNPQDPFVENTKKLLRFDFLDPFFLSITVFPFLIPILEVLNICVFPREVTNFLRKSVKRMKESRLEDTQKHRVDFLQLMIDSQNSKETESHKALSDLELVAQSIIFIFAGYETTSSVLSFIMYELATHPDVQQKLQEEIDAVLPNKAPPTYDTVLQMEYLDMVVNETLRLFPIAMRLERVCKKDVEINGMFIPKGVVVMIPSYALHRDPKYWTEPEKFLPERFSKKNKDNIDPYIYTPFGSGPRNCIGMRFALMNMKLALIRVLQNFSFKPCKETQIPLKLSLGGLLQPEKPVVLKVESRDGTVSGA

Compound	EC50 [1]	Efficacy [2]	other results
O=C(O)CCc1ccc(OCc2coc(-c3cccc(F)c3)n2)cc1	560 nM	99%	–
C=C[C@H]1C[N@@]2CC[C@H]1C[C@@H]2[C@@H](O)c1ccnc2ccc(OC)cc12 [QUINIDINE]	–	–	inhibition at 1 µM [3]: 96.2%
Cc1cccc(-c2noc(COc3ccc(CCC(=O)O)cc3Cl)n2)c1	4580 nM	54%	–
COc1ccc2[nH]c([S+]([O-])Cc3ncc(C)c(OC)c3C)nc2c1 (stereo unspecified) [OMEPRAZOLE]	–	–	inhibition at 24 µM [4]: 93.4%
CC(Oc1ccc(CCC(=O)O)cc1)c1nc(-c2ccccc2)no1 (stereo unspecified)	2390 nM	109%	–
O=C(O)Cc1ccc(OCc2nc(-c3cccc(Cl)c3)no2)cc1	18800 nM	69%	–
CC(Oc1ccc(CCC(=O)O)cc1)c1nc(-c2ccc(Cl)cc2)no1 (stereo unspecified)	500 nM	68%	–
COc1cccc(-c2noc(COc3ccc(CCC(=O)O)cc3)n2)c1	2670 nM	81%	–
O=C(O)CCc1ccc(OCc2ncc(-c3cccc(Cl)c3)o2)cc1	47500 nM	30%	–
O=C(O)CCc1ccc(OCc2nc(-c3cccc(Br)c3)no2)cc1	1260 nM	130%	–
O=C(O)CCc1ccc(OCc2nc(-c3ccc(Cl)cc3)no2)cc1	540 nM	84%	inhibition at 5 µM [5]: 25.9%; fraction unbound at 5 h, 1 µM [6]: 0.001; EC50 [7]: > 10000 nM; inhibition at 5 µM [8]: -5.8%; EC50 [9]: > 10000 nM; inhibition at 5 µM [10]: 31.6%; inhibition at 5 µM [11]: 16.2%; Papp A→B at 10 µM [12]: 2.1 ×10⁻⁶ cm/s; half-life at 2 µM [13]: 12.1 h; EC50 [14]: > 10000 nM; inhibition at 5 µM [15]: 50.1%; solubility kinetic [16]: 214 µM (≈ 76.8 µg/mL)
O=C(O)CCc1ccc(OCc2ncc(-c3cccc(F)c3)o2)cc1	1070 nM	81%	–
O=C(O)CCc1ccc(OCc2nc(-c3cccc(C(F)(F)F)c3)no2)cc1	1110 nM	65%	–
O=C(O)CCc1ccc(OCc2nc(-c3ccc(C(F)(F)F)cc3)no2)cc1	610 nM	73%	–
CCc1ccc(-c2noc(COc3ccc(CCC(=O)O)cc3)n2)cc1	210 nM	106%	–
O=C(O)CCc1ccc(OCc2nc(-c3ccccc3)no2)c(Cl)c1	13100 nM	95%	–

Compound	EC50 [1]	Efficacy [2]	other results
O=C(O)CCc1ccc(OCc2coc(-c3cccc(Cl)c3)n2)cc1	160 nM	106%	–
O=C(O)CCc1ccc(OCc2nc(-c3cccc(C(F)(F)F)c3)no2)c(Cl)c1	30100 nM	22%	–
O=C(O)CCc1ccc(OCc2ncc(-c3ccccc3)o2)cc1	1600 nM	58%	–
O=C(O)CCc1ccc(OCc2nc(-c3ccccc3Cl)no2)cc1	1200 nM	61%	–
O=C(O)CCc1ccc(OCc2coc(-c3ccccc3)n2)cc1	700 nM	98%	–
O=C(O)CCc1ccc(OCc2nc(-c3ccco3)no2)cc1	> 100000 nM	–	–
O=C(O)CCc1ccc(OCc2nc(-c3ccc(F)cc3)no2)cc1	680 nM	66%	–
O=C(O)CCc1ccc(OCc2nc(-c3cccs3)no2)cc1	2570 nM	59%	–
COc1cccc(-c2noc(COc3ccc(CCC(=O)O)cc3Cl)n2)c1	3000 nM	88%	–
OC(Cn1cncn1)(Cn1cncn1)c1ccc(F)cc1F [FLUCONAZOLE]	–	–	inhibition at 120 µM [17]: 89.1%
CC(Oc1ccc(CCC(=O)O)cc1)c1nc(-c2cccs2)no1 (stereo unspecified)	4000 nM	94%	–
Cc1oc(-c2ccccc2)nc1COc1ccc(CCC(=O)O)cc1	58 nM	103%	inhibition at 5 µM [5]: 8.9%; fraction unbound at 5 h, 1 µM [6]: 0.014; EC50 [7]: > 10000 nM; inhibition at 5 µM [8]: 17.7%; EC50 [9]: > 10000 nM; inhibition at 5 µM [10]: 23.6%; inhibition at 5 µM [11]: 10.8%; Papp A→B at 10 µM [12]: 15.2 ×10⁻⁶ cm/s; half-life at 2 µM [13]: 7.23 h; EC50 [14]: > 10000 nM; inhibition at 5 µM [15]: 36.2%; solubility kinetic [16]: 404 µM (≈ 136 µg/mL)
Cc1cc(-c2noc(COc3ccc(CCC(=O)O)cc3)n2)ccc1F	2120 nM	75%	–
O=C(O)CCc1ccc(OCc2noc(-c3ccccc3)n2)cc1	2650 nM	42%	–
O=C(O)CCc1ccc(OCc2nc(-c3ccccc3)no2)cc1	1130 nM	65%	–
Cc1ccc(-c2noc(COc3ccc(CCC(=O)O)cc3)n2)cc1	300 nM	99%	inhibition at 5 µM [5]: 13.6%; fraction unbound at 5 h, 1 µM [6]: 0.015; EC50 [7]: > 10000 nM; inhibition at 5 µM [8]: -8.3%; EC50 [9]: > 10000 nM; inhibition at 5 µM [10]: 20.6%; inhibition at 5 µM [11]: 4.26%; Papp A→B at 10 µM [12]: 27.3 ×10⁻⁶ cm/s; half-life at 2 µM [13]: 6.22 h; EC50 [14]: > 10000 nM; inhibition at 5 µM [15]: 29.2%; solubility kinetic [16]: 334 µM (≈ 113 µg/mL)
